From the NIST ThermoML archive (doi:10.1016/j.jct.2012.06.023)
± gives the expanded uncertainty stated by the source.

Tests used:
[1] = xn = mol fraction of the nth substance listed; settings: x1 = 1; for surface tension liquid-gas: Wilhelmy plate; for viscosity: 101 kPa, Liquid, Concentric cylinders viscometry
[2] = 298.15 K; for surface tension liquid-gas: Wilhelmy plate; for viscosity: 101.33 kPa, Liquid, Concentric cylinders viscometry
[3] = refractive index (Na D-line) (dimensionless); settings: 293.1 K; 101.33 kPa; Liquid; Standard Abbe refractometry

| surface tension liquid-gas ([1]; 298.15 K) [mN/m] | viscosity ([1]; 298.15 K) [mPa·s] | surface tension liquid-gas ([1]; 303.15 K) [mN/m] | viscosity ([1]; 303.15 K) [mPa·s] | surface tension liquid-gas ([1]; 308.15 K) [mN/m] | viscosity ([1]; 308.15 K) [mPa·s] | surface tension liquid-gas ([1]; 313.15 K) [mN/m] | viscosity ([1]; 313.15 K) [mPa·s] | surface tension liquid-gas [2] [mN/m] | viscosity [2] [mPa·s] | refractive index [3] | Structure (SMILES) |
| --- | --- | --- | --- | --- | --- | --- | --- | --- | --- | --- | --- |
| 35.2 ± 0.04 | 0.8162 ± 0.0092 | 34.1 ± 0.04 | 0.7678 ± 0.0091 | 33 ± 0.04 | 0.7262 ± 0.009 | 32 ± 0.03 | 0.678 ± 0.0089 |  |  |  | CN(C)C=O [dimethylformamide] + CCCCCCCO |
|  |  |  |  |  |  |  |  | 26.47 ± 0.13 | 5.944 ± 0.038 | 1.424 ± 0.02 | CCCCCCCO [heptan-1-ol] |
|  |  |  |  |  |  |  |  |  | 4.593 ± 0.022 | 1.418 ± 0.001 | CCCCCCO [hexan-1-ol] |
| 35.2 ± 0.04 | 0.8162 ± 0.0092 | 34.1 ± 0.04 | 0.7678 ± 0.0091 | 33 ± 0.04 | 0.7262 ± 0.009 | 32 ± 0.03 | 0.678 ± 0.0089 |  |  |  | CN(C)C=O [dimethylformamide] + CCCCCO |
| 35.2 ± 0.04 | 0.8162 ± 0.0092 | 34.1 ± 0.04 | 0.7678 ± 0.0091 | 33 ± 0.04 | 0.7262 ± 0.009 | 32 ± 0.03 | 0.678 ± 0.0089 |  |  |  | CN(C)C=O [dimethylformamide] + CCCCCCO |
|  |  |  |  |  |  |  |  | 24.55 ± 0.062 | 3.5 ± 0.018 | 1.409 ± 0.02 | CCCCCO [pentan-1-ol] |
|  |  |  |  |  |  |  |  | 35.2 ± 0.04 | 0.8162 ± 0.0092 | 1.429 ± 0.02 | CN(C)C=O [dimethylformamide] |
